Test results reported in ChEMBL document CHEMBL1201862, “PubChem BioAssay data set” (2004).
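Where inhibition never reached the appropriate level, the endpoint shown equals the highest concentration tested. Otherwise, values were interpolated linearly from a five-concentration, 48-hour dose response in 96-well plates. At the GI50, growth is halved.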 Active and inactive are the calls of the source. No stated cut-off is given here; in the data, active = GI50 up to about 1.1 µM and inactive = higher.

What was measured:
Test in all cases: NCI-60 cell line screen, 48 h
786-0 = tested on: 786-0
A498 = tested on: A498
A549 = tested on: A549
ACHN = tested on: ACHN
CAKI-1 = tested on: CAKI-1
CCRF-CEM = tested on: CCRF-CEM
COLO 205 = tested on: COLO 205
DU-145 = tested on: DU-145
EKVX = tested on: EKVX
HCC 2998 = tested on: HCC 2998
HCT-116 = tested on: HCT-116
HCT-15 = tested on: HCT-15
HL-60 = tested on: HL-60
HOP-62 = tested on: HOP-62
HT-29 = tested on: HT-29
Hs-578T = tested on: Hs-578T
IGROV-1 = tested on: IGROV-1
K562 = tested on: K562
KM12 = tested on: KM12
LOX IMVI = tested on: LOX IMVI
M14 = tested on: M14
MCF7 = tested on: MCF7
MDA-MB-231 = tested on: MDA-MB-231
MDA-MB-435 = tested on: MDA-MB-435
MDA-N = tested on: MDA-N
MOLT-4 = tested on: MOLT-4
Malme-3M = tested on: Malme-3M
NCI-H226 = tested on: NCI-H226
NCI-H23 = tested on: NCI-H23
NCI-H460 = tested on: NCI-H460
NCI-H522 = tested on: NCI-H522
NCI/ADR-RES = tested on: NCI/ADR-RES
OVCAR-3 = tested on: OVCAR-3
OVCAR-4 = tested on: OVCAR-4
OVCAR-5 = tested on: OVCAR-5
OVCAR-8 = tested on: OVCAR-8
PC-3 = tested on: PC-3
RPMI-8226 = tested on: RPMI-8226
RXF 393 = tested on: RXF 393
SF-268 = tested on: SF-268
SF-295 = tested on: SF-295
SF-539 = tested on: SF-539
SK-MEL-28 = tested on: SK-MEL-28
SK-MEL-2 = tested on: SK-MEL-2
SK-MEL-5 = tested on: SK-MEL-5
SK-OV-3 = tested on: SK-OV-3
SN12C = tested on: SN12C
SNB-19 = tested on: SNB-19
SNB-75 = tested on: SNB-75
SR = tested on: SR
SW-620 = tested on: SW-620
T47D = tested on: T47D
TK-10 = tested on: TK-10
UACC-257 = tested on: UACC-257
UACC-62 = tested on: UACC-62
UO-31 = tested on: UO-31
BT-549 = tested on: BT-549
HOP-92 = tested on: HOP-92
U-251 = tested on: U-251

## C/C=C(\C)CC/C=C/CO[Si](C)(C)C(C)(C)C
786-0
  GI50: > 100 µM (inactive)
A498
  GI50: > 100 µM (inactive)
A549
  GI50: 39.4 µM (inactive)
ACHN
  GI50: > 100 µM (inactive)
CAKI-1
  GI50: > 100 µM (inactive)
CCRF-CEM
  GI50: 24.7 µM (inactive)
COLO 205
  GI50: > 100 µM (inactive)
DU-145
  GI50: > 100 µM (inactive)
EKVX
  GI50: > 100 µM (inactive)
HCC 2998
  GI50: > 100 µM (inactive)
HCT-116
  GI50: 46.8 µM (inactive)
HCT-15
  GI50: > 100 µM
HL-60
  GI50: 32.6 µM (inactive)
HOP-62
  GI50: > 100 µM (inactive)
HT-29
  GI50: 42.5 µM (inactive)
Hs-578T
  GI50: > 100 µM (inactive)
IGROV-1
  GI50: > 100 µM (inactive)
K562
  GI50: > 100 µM (inactive)
KM12
  GI50: > 100 µM (inactive)
LOX IMVI
  GI50: 22.3 µM (inactive)
M14
  GI50: > 100 µM (inactive)
MCF7
  GI50: 40.1 µM (inactive)
MDA-MB-231
  GI50: > 100 µM (inactive)
MDA-MB-435
  GI50: > 100 µM (inactive)
MDA-N
  GI50: > 100 µM (inactive)
MOLT-4
  GI50: 39 µM (inactive)
Malme-3M
  GI50: 51.1 µM (inactive)
NCI-H226
  GI50: > 100 µM (inactive)
NCI-H23
  GI50: > 100 µM (inactive)
NCI-H460
  GI50: > 100 µM (inactive)
NCI-H522
  GI50: > 100 µM (inactive)
NCI/ADR-RES
  GI50: > 100 µM (inactive)
OVCAR-3
  GI50: 54.7 µM (inactive)
OVCAR-4
  GI50: > 100 µM (inactive)
OVCAR-5
  GI50: > 100 µM (inactive)
OVCAR-8
  GI50: > 100 µM (inactive)
PC-3
  GI50: > 100 µM (inactive)
RPMI-8226
  GI50: > 100 µM (inactive)
RXF 393
  GI50: > 100 µM (inactive)
SF-268
  GI50: > 100 µM (inactive)
SF-295
  GI50: 79.1 µM (inactive)
SF-539
  GI50: > 100 µM (inactive)
SK-MEL-28
  GI50: > 100 µM (inactive)
SK-MEL-2
  GI50: 35.4 µM (inactive)
SK-MEL-5
  GI50: > 100 µM (inactive)
SK-OV-3
  GI50: > 100 µM (inactive)
SN12C
  GI50: > 100 µM (inactive)
SNB-19
  GI50: > 100 µM (inactive)
SNB-75
  GI50: > 100 µM (inactive)
SR
  GI50: 28.9 µM (inactive)
SW-620
  GI50: > 100 µM (inactive)
T47D
  GI50: > 100 µM (inactive)
TK-10
  GI50: > 100 µM (inactive)
UACC-257
  GI50: 69 µM (inactive)
UACC-62
  GI50: > 100 µM (inactive)
UO-31
  GI50: > 100 µM (inactive)

## O=C(NNCc1ccc(Cl)cc1)Nc1cccc2ccccc12
786-0
  GI50: 51.6 µM (inactive)
ACHN
  GI50: 45 µM (inactive)
BT-549
  GI50: 97.1 µM (inactive)
CAKI-1
  GI50: 42.7 µM (inactive)
CCRF-CEM
  GI50: > 100 µM (inactive)
COLO 205
  GI50: > 100 µM (inactive)
DU-145
  GI50: 69.2 µM (inactive)
EKVX
  GI50: > 100 µM (inactive)
HCC 2998
  GI50: > 100 µM (inactive)
HCT-116
  GI50: 63 µM (inactive)
HCT-15
  GI50: > 100 µM
HL-60
  GI50: > 100 µM (inactive)
HOP-62
  GI50: 48.2 µM (inactive)
HOP-92
  GI50: 29.3 µM (inactive)
HT-29
  GI50: > 100 µM (inactive)
IGROV-1
  GI50: > 100 µM (inactive)
K562
  GI50: > 100 µM (inactive)
KM12
  GI50: 68.4 µM (inactive)
LOX IMVI
  GI50: > 100 µM (inactive)
M14
  GI50: > 100 µM (inactive)
MCF7
  GI50: 26.8 µM (inactive)
MDA-MB-435
  GI50: 52.6 µM (inactive)
MDA-N
  GI50: > 100 µM (inactive)
MOLT-4
  GI50: 29.4 µM (inactive)
Malme-3M
  GI50: > 100 µM (inactive)
NCI-H226
  GI50: > 100 µM (inactive)
NCI-H23
  GI50: > 100 µM (inactive)
NCI-H460
  GI50: 41.5 µM (inactive)
NCI-H522
  GI50: 27.3 µM (inactive)
NCI/ADR-RES
  GI50: > 100 µM (inactive)
OVCAR-3
  GI50: > 100 µM (inactive)
OVCAR-4
  GI50: > 100 µM (inactive)
OVCAR-5
  GI50: 94.6 µM (inactive)
OVCAR-8
  GI50: > 100 µM (inactive)
PC-3
  GI50: > 100 µM (inactive)
RPMI-8226
  GI50: 16.4 µM (inactive)
RXF 393
  GI50: > 100 µM (inactive)
SF-268
  GI50: 93.1 µM (inactive)
SF-295
  GI50: 82 µM (inactive)
SF-539
  GI50: 47.4 µM (inactive)
SK-MEL-28
  GI50: > 100 µM (inactive)
SK-MEL-2
  GI50: > 100 µM (inactive)
SK-MEL-5
  GI50: 76.2 µM (inactive)
SN12C
  GI50: > 100 µM (inactive)
SNB-19
  GI50: > 100 µM (inactive)
SNB-75
  GI50: > 100 µM (inactive)
SR
  GI50: > 100 µM (inactive)
SW-620
  GI50: > 100 µM (inactive)
T47D
  GI50: 28.6 µM (inactive)
TK-10
  GI50: > 100 µM (inactive)
U-251
  GI50: 58.5 µM (inactive)
UACC-257
  GI50: > 100 µM (inactive)
UACC-62
  GI50: 90.4 µM (inactive)
UO-31
  GI50: 84.1 µM (inactive)

## C#CC(O)/C=C/C(O)CCCC(O)CC#CC(O)C#CCCCCC(O)/C=C/CCCC(O)/C=C/CCCCCCCCCCCCCC(O)C(O)C#CC(=O)O (stereo not given)
786-0
  GI50: > 25 µM (inactive)
A498
  GI50: > 25 µM (inactive)
A549
  GI50: > 25 µM (inactive)
ACHN
  GI50: > 25 µM (inactive)
CAKI-1
  GI50: > 25 µM (inactive)
CCRF-CEM
  GI50: > 25 µM (inactive)
COLO 205
  GI50: > 25 µM (inactive)
DU-145
  GI50: > 25 µM (inactive)
EKVX
  GI50: > 25 µM (inactive)
HCC 2998
  GI50: > 25 µM (inactive)
HCT-116
  GI50: > 25 µM (inactive)
HCT-15
  GI50: > 25 µM
HL-60
  GI50: > 25 µM (inactive)
HOP-62
  GI50: > 25 µM (inactive)
HOP-92
  GI50: > 25 µM (inactive)
HT-29
  GI50: > 25 µM (inactive)
Hs-578T
  GI50: > 25 µM (inactive)
IGROV-1
  GI50: > 25 µM (inactive)
K562
  GI50: > 25 µM (inactive)
KM12
  GI50: > 25 µM (inactive)
LOX IMVI
  GI50: 13.9 µM (inactive)
M14
  GI50: > 25 µM (inactive)
MCF7
  GI50: > 25 µM (inactive)
MDA-MB-231
  GI50: > 25 µM (inactive)
MDA-MB-435
  GI50: > 25 µM (inactive)
MDA-N
  GI50: > 25 µM (inactive)
MOLT-4
  GI50: > 25 µM (inactive)
Malme-3M
  GI50: 23.2 µM (inactive)
NCI-H226
  GI50: > 25 µM (inactive)
NCI-H23
  GI50: > 25 µM (inactive)
NCI-H460
  GI50: > 25 µM (inactive)
NCI-H522
  GI50: 12.8 µM (inactive)
NCI/ADR-RES
  GI50: > 25 µM (inactive)
OVCAR-4
  GI50: > 25 µM (inactive)
OVCAR-5
  GI50: > 25 µM (inactive)
OVCAR-8
  GI50: > 25 µM (inactive)
PC-3
  GI50: > 25 µM (inactive)
RPMI-8226
  GI50: > 25 µM (inactive)
RXF 393
  GI50: > 25 µM (inactive)
SF-268
  GI50: > 25 µM (inactive)
SF-295
  GI50: > 25 µM (inactive)
SK-MEL-28
  GI50: > 25 µM (inactive)
SK-MEL-2
  GI50: > 25 µM (inactive)
SK-MEL-5
  GI50: > 25 µM (inactive)
SK-OV-3
  GI50: > 25 µM (inactive)
SN12C
  GI50: > 25 µM (inactive)
SNB-19
  GI50: > 25 µM (inactive)
SNB-75
  GI50: 20 µM (inactive)
SR
  GI50: > 25 µM (inactive)
T47D
  GI50: > 25 µM (inactive)
TK-10
  GI50: > 25 µM (inactive)
U-251
  GI50: > 25 µM (inactive)
UACC-257
  GI50: > 25 µM (inactive)
UACC-62
  GI50: > 25 µM (inactive)
UO-31
  GI50: > 25 µM (inactive)
